# Source: US5344780A, “Method for determining indole compounds associated with boar taint in pork as well as a sample container to be used in the method” (priority 1990, dated 1994)
# Where “and” joins values, the source holds several entries; their conditions need not be identical. Identical values can stand only once.
# Assay: HPLC-analysis of extracted lard with heating (Example 1; also reproducibility test)
# Design: species or system pig
# Description: The present Example illustrates the extraction on the entire sample of lard and the determination of indole and skatole by HPLC.
# A sample of lard of 5 g is taken subcutaneously from the occipital region of a carcass. The sample is placed in a container and heated at 80° C. for 10 minutes in microwave oven in order to melt the fat. An amount of 5 ml of methanol is then added to the sample which is shaken, whereupon the sample is extracted for 10 minutes. Subsequently, the sample is filtered to remove the fat and connective tissue and analyzed by HPLC under the following conditions:
# HPLC-apparatus: Merck HPLC with fluorescence detector and autosampler,
# Eluant: water:methanol (20:80) (volume:volume)
# Fluorescence detector: excitation wavelength=285 nm, emission wavelength=340 nm
# Column: Lichrocart 250-4, Lichrospher 100 RP18, 5 micron, reverse phase
# Injection volume: 20 microliter,
# Detection limit: 5 ppb (0,005 ppm) in solution […]
# The samples were such analyzed 10 times.
structure (smiles),measurement,setting,value
"Cc1c[nH]c2ccccc12 [Skatole, skatole]","ppb skatole at HPLC-analysis, overall average","Table 2, 4 samples, n = 40",48.47 ppb
same,"ppb skatole at HPLC-analysis, highest","Table 2, samples 1-4",50.00 ppb and 50.93 ppb and 52.80 ppb and 51.87 ppb
same,"ppb skatole at HPLC-analysis, lowest","Table 2, samples 1-4",44.13 ppb and 43.87 ppb and 49.07 ppb
same,"ppb skatole at HPLC-analysis, average per sample","Table 2, samples 1-4, 10 analyses each",47.61 ppb and 47.63 ppb and 50.67 ppb and 47.96 ppb
same,"ppb skatole at HPLC-analysis, overall average","Table 3, 3 samples, n = 30",71.38 ppb
same,ppb skatole at HPLC-analysis,"Table 3, sample 1, analyses 1-10",72.00 ppb and 69.33 ppb and 74.67 ppb and 77.33 ppb
same,ppb skatole at HPLC-analysis,"Table 3, sample 2, analyses 1-10",74.67 ppb and 69.33 ppb and 66.67 ppb and 72.00 ppb
same,ppb skatole at HPLC-analysis,"Table 3, sample 3, analyses 1-10",72.00 ppb and 69.33 ppb and 66.67 ppb
same,"ppb skatole at HPLC-analysis, highest","Table 3, samples 1-3",77.33 ppb and 74.67 ppb and 72.00 ppb
same,"ppb skatole at HPLC-analysis, lowest","Table 3, samples 1-3",69.33 ppb and 66.67 ppb
same,"ppb skatole at HPLC-analysis, average per sample","Table 3, samples 1-3, 10 analyses each",73.60 ppb and 70.13 ppb and 70.40 ppb
